Data reported in PubChem BioAssay (NCI).
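Briefly, cells in 96-well plates were exposed to five compound concentrations for 48 h, and endpoints were estimated by linear interpolation. TGI denotes the concentration required for complete inhibition of growth.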

What was measured:
Test in all cases: NCI tumour cell line growth inhibition, 48 h
[1] = tested on: M14 melanoma
[2] = tested on: COLO 205 colon
[3] = tested on: MDA-N
[4] = tested on: DU-145 prostate
[5] = tested on: HCC-2998 colon
[6] = tested on: SF-295 CNS
[7] = tested on: SW-620 colon
[8] = tested on: SN12C renal
[9] = tested on: RPMI-8226 leukemia
[10] = tested on: HS 578T breast

Question: Which results are given for `CCOC(=O)C1OC(C2(C)OC3(OC4(C=CC3O)OC(C(C)C(=O)C(C)C(O)C(C)CC(C)c3c(Cl)cc(C)c(O)c3C(=O)O)C(C)CC4C)C(C)C2OC)CC1O` (stereo not given)?
Answer: TGI [1]: 6.38 µM; TGI [2]: 2.08 µM; TGI [3]: 4.76 µM; TGI [4]: 5.93 µM; TGI [5]: 0.264 µM; TGI [6]: 3.89 µM; TGI [7]: 10.5 µM; TGI [8]: 4.84 µM; TGI [9]: > 14.7 µM; TGI [10]: 11.7 µM
